The test system of one assay is Vero cells. The assay is described as follows: MTT antiproliferative activity assay, Vero. As to conditions: Chlorocebus sabaeus, Vero; MTT, 48 h treatment, average of three replicates; read-out: IC50 Vero. It is filed as cell-based, African green monkey. As to the method:
(§1) Hep-2 (larynx carcinoma, ATCC: CCL-23), MCF-7 (breast epithelial adenocarcinoma, ATCC: HTB-22), and Vero (African green monkey kidney, ATCC: CCL-81) cell lines were kindly provided by Dr. Mona Hassuneh (Department of Biological Sciences, University of Jordan). Cells were grown in Minimum Essential Medium Eagle (Gibco, Paisley UK) supplemented with 10% heat inactivated fetal bovine serum (Gibco, Paisley UK), 29 μg/mL L-glutamine, and 40 μg/mL gentamicin. Cells were incubated in a humidified atmosphere of 5% CO2 at 37 °C.
(§2) The antiproliferative activity of Inula viscosa compounds was measured using the MTT (3-(4,5-dimethylthiazol-2-yl)-2,5-diphenyltetrazolium bromide) assay (Promega, Madison, WI, USA). The assay detects the reduction of MTT by mitochondrial dehydrogenase to blue formazan product, which reflects the normal function of mitochondria and cell viability. Exponentially growing cells were washed and seeded at 17,000 cells/well for Hep-2 cell line and 11,000 cells/ well for MCF-7 cell line (in 200 μL of growth medium) in 96 well microplates (Nunc, Roskilde, Denmark). After 24 h incubation, a partial monolayer was formed then the media was removed and 200 μL of the medium containing the compound (initially dissolved in DMSO) were added and re-incubated for 48 h. Then 100 μL of the medium were aspirated and 15 μL of the MTT solution were added to the remaining medium (100 μL) in each well. After 4 h contact with the MTT solution, blue crystals were formed. One hundred μL of the stop solution were added and incubated further for 1 h.
(§3) Reduced MTT was assayed at 550 nm using a microplate reader (Biotek, Winooski, VT, USA). Control groups received the same amount of DMSO (0.1%).Untreated cells were used as a negative control while, cells treated with vincristine sulfate were used as a positive control. Eight concentrations (150, 100, 50, 20, 10, 5, 2, and 1 μg/mL) were prepared from each compound and tested against the three cell lines. IC50 values were calculated as the concentrations that show 50% inhibition of proliferation on any tested cell line. Stock solutions of the compounds were dissolved in (DMSO) then diluted with the medium and sterilized using 0.2 μm membrane filters. The toxicity of DMSO was determined and the final dilution of compounds used for treating the cells contained not more than 0.1% (non toxic concentration) DMSO. IC50 values were reported as the average of three replicates. The antiproliferative effect of the tested compounds was determined by comparing the optical density of the treated cells against the optical density of the control (cells treated with media containing 0.1% DMSO).

In assay [1] the test system is Methicillin resistant Staphylococcus aureus (MRSA). The assay is described as follows: Microtiter plate dilution MIC, MRSA. As to conditions: Staphylococcus aureus, MRSA; clinical isolate, 24 h, 100% inhibition; read-out: Minimum inhibitory concentration (MIC) MRSA. It is filed as cell-based. As to the method: (§4) The microbial strains used in this study were Escherichia coli (ATCC 10798), Salmonella typhimurium (ATCC14028), Methicillin resistant Staphylococcus aureus (MRSA, Clinical isolate), Bacillus cereus (Toxigenic strain TS), and Candida albicans (ATCC 90028). Bacterial strains were stocked onto nutrient agar slant at 4 °C, and Candida albicans was stocked onto malt agar slant at 4 °C.
(§5) The microtiter plate dilution method was used to determine the MIC (minimum inhibitory concentration) of compounds under study. Sterile 96-well microplates (Nunc) were used for the assay. Stock compounds were dissolved in DMSO so that the final concentrations in micro wells were less than 1% DMSO and solvent controls were run at these concentrations. Positive controls of penicillin G and tetracycline (Oxoid, Hampshire, UK) were prepared at the following concentrations 2, 4, 8, 16, 31, 62.5, 125, and 250 μg/mL. 1% DMSO was used as a solvent control. Compounds were diluted to twice the desired initial test concentration (250 µg/mL) with Muller Hinton broth (MHB) (Oxoid). All wells, except the first were filled with MHB (50 μL). Compounds (100 μL) were added to the first well and serial two-fold dilutions were made down to the desired minimum concentration (2 μg/mL). An over-night culture of bacteria suspended in MHB was adjusted to turbidity equal to 0.5 McFarland standard. The plates were inoculated with bacterial suspension (50 μL/well) and incubated at 37 °C for 24 h. Then the turbidity was measured using micro-plate reader (Biotek) at 620 nm wavelength. The same procedure was used to determine the antifungal activity of compounds against Candida albicans. The medium used was malt extract broth. The yeast cells were suspended in 0.85% saline, with an optical density equivalent to 0.5 McFarland standard, and diluted 1:100 in malt extract broth to obtain the working concentration. After 24 h incubation with each compound, the turbidity was measured at 530 nm wavelength using a spectrophotometer (Biotek). Percentage inhibition for tested microorganisms was calculated using the following formula:
(§6) MIC was determined as the lowest concentration of the compound that causes complete inhibition (100%) of each microorganism.

Assay [2] has as its system MCF-7 cells. Briefly: TUNEL colorimetric apoptosis assay. As to conditions: 15 µg/mL, 28 h, compared with untreated cells. It counts as cell-based, human. The method, then: Apoptosis was detected using terminal deoxynucleotidyl transferase (TdT) mediated-16-deoxyuridine triphosphate (dUTP) Nick-End Labelling (TUNEL) system (Promega, Madison, WI, USA). MCF-7 cells cultured in 24 well plates were treated with 15 µg/mL of either 3-O-methylquercetin or 3,3′-di-O-methylquercetin for 28 h. The assay was conducted according to the manufacturer's instructions. Briefly, treated cells were fixed using 10% formalin followed by washing with phosphate buffer saline (PBS). Cells were then permeabilized using 0.2% triton X-100. Biotinylated dUTP in rTdT reaction mixture was added to label the fragmented DNA at 37 °C for one hour, followed by blocking endogenous peroxidases using 0.3% hydrogen peroxide. Streptavidin HRP (1:500 in PBS) was added and incubated at room temperature for 30 min. Finally, hydrogen peroxide and chromagen diaminobenzidine were used to visualize nuclei with fragmented DNAs under the light microscope (Novex, Arnhem, Holland). Cells treated with 40 nM vincristine sulfate were used as a positive control while untreated cells were used as a negative control.

Assay [3] deals with MCF-7 cells. Briefly: MTT antiproliferative activity assay, MCF-7. As to conditions: Homo sapiens, MCF7; MTT, 48 h treatment, average of three replicates; read-out: IC50 MCF-7. It counts as cell-based, human. As to the method:
as §1, §2, §3
A general note: Tetrazolium assays rely on reduction of a dye to a coloured formazan, in cell work by metabolically active cells.

The subject of another assay is Candida albicans. Briefly: Microtiter plate dilution MIC, C. albicans. It is filed as cell-based. To be noted: Candida albicans, ATCC90028; ATCC 90028, malt extract broth, 24 h, 100% inhibition; read-out: Minimum inhibitory concentration (MIC) C.a. The method, then:
as §4, §5, §6

Another assay has as its system Salmonella typhimurium. The assay is described as follows: Microtiter plate dilution MIC, S. typhimurium. As to conditions: Salmonella enterica, ATCC 14028 / TYPHIMURIUM; ATCC14028, 24 h, 100% inhibition; read-out: Minimum inhibitory concentration (MIC) S.t. It is filed as cell-based. The method, then:
as §4, §5, §6

Each structure is given as a SMILES string. In brackets after ≈: the same amount, converted by molar mass.

In general, IC50 refers to the midpoint of a concentration-inhibition curve. For `COc1cc(-c2oc3cc(O)cc(O)c3c(=O)c2OC)ccc1O` [3,3′-di-O-Methylquercetin], the 50% inhibitory concentration (IC50) in the assay on Vero cells was above 150 µg/mL; in the assay with MCF-7 cells [3] it was 10.1 ± 1.15 µg/mL (≈ 30.6 µM). The MIC in assay [1] was determined as 250 µg/mL (≈ 757 µM); in the assay on Candida albicans, 250 µg/mL (≈ 757 µM); in the assay with Salmonella typhimurium it was 125 µg/mL (≈ 378 µM). The “Apoptosis induction (DNA fragmentation, TUNEL)” value in the assay on MCF-7 cells [2] is “increase in the number of apoptotic cells with fragmented DNA”.
